Test results from ChEMBL document CHEMBL6134767, “Advances in antibacterial agents for Mycobacterium fortuitum” (2025).
Converted amounts (≈) assume the structure as drawn. Structures can show the parent of a compound that is named as a salt.

test system: Mycolicibacterium fortuitum; assay: Antimycobacterial activity against Mycobacterium fortuitum NCTC 10394 assessed as reduction in microbial growth incubated for 72 hrs by resazurin dye based broth microdilution method; assay type: functional

Compound | MIC
O=c1ccc2nccc3c4ccccc4n1c23 [CANTHIN-6-ONE] | 72.7 µM
C1=C2CCCC/C=C\C=C\CCN3CC[C@@H]4[C@H](CCCCCC/C=C\C=C/CCN(C2)C[C@H]14)C3 [HALICYCLAMINE A] | 54 µM
CC(C)CCn1cc(NC(=O)c2ccc3[nH]c(C(=O)Nc4cc(C(=O)Nc5ccc(C(=O)NCCN6CCN(C)CC6)n5C)n(CCC(C)C)c4)cc3c2)cc1C(=O)Nc1cc(C(=O)NCCN2CCN(C)CC2)n(C)c1 | 9.5 µM
C[C@@H]([C@H](NC(=O)[C@H](Cc1ccc2ccccc2c1)NC(=O)N[C@@H](Cc1c[nH]c2ccccc12)C(=O)NCC(C)(C)C)C(=O)NC[C@H]1C[C@@H](O)[C@H](n2ccc(=O)[nH]c2=O)O1)N(C)C(=O)CN | 1 µM

More lines, now with the values ahead:

MIC | Compound
5.2 µM | CC(C)CCn1cc(NC(=O)c2ccc3[nH]c(C(=O)Nc4cc(C(=O)Nc5ccc(C(=O)NCCN(C)C)n5C)n(CCC(C)C)c4)cc3c2)cc1C(=O)Nc1cc(C(=O)NCCN(C)C)n(C)c1
59.5 µM | C[n+]1c2ccccc2cc2[n-]c3ccccc3c21 [CRYPTOLEPINE HYDROCHLORIDE]

test system: Mycolicibacterium fortuitum; assay: Antimycobacterial activity against Mycobacterium fortuitum ATCC 6841; assay type: functional

Compound | MIC
C/C=C/c1cc(OC)c2c(c1)[C@@H](C)[C@H](c1ccc(O)c(OC)c1)O2 [LICARINE A] | 0.12 µM (≈ 0.0392 µg/mL)
OCCCCCCCCN=C=S | 21.4 µM (≈ 4 µg/mL)
c1ccc2c(c1)[I+]c1ccccc1-2 [DIPHENYLENEIODONIUM CHLORIDE] | 0.4 µM
COc1ncnc(SC(=S)N2CCCC2)c1[N+](=O)[O-] | 5.19 µM (≈ 1.56 µg/mL)
N#Cc1cc([N+](=O)[O-])cnc1SC(=S)N1CCCCC1 | 5.05 µM (≈ 1.56 µg/mL)
C/C=C/c1cc(OC)c2oc(-c3ccc(O)c(OC)c3)c(C)c2c1 | 0.15 µM (≈ 0.0487 µg/mL)
Cc1cc(O)c2c(c1)C(=O)C=CC2=O [RAMENTACEONE] | 0.12 µM (≈ 0.0226 µg/mL)
CC(C)(O)c1cc2c(o1)C(=O)c1ccccc1C2=O [AVICEQUINONE C] | 48.8 µM (≈ 12.5 µg/mL)
O=c1nc(N2CCN(CC3CCCCC3)CC2)sc2c([N+](=O)[O-])cc(C(F)(F)F)cc12 [MACOZINONE] | 0.022 µM (≈ 0.01 µg/mL)
CCN(CC)C(=S)Sc1ncc([N+](=O)[O-])cc1C#N | 1.35 µM (≈ 0.4 µg/mL)
N#Cc1cc([N+](=O)[O-])cnc1SC(=S)N1CCCC1 | 5.3 µM (≈ 1.56 µg/mL)

Continued, values first:

MIC | Compound
17.5 µM (≈ 6.25 µg/mL) | NC(=O)c1cc([N+](=O)[O-])cc([N+](=O)[O-])c1SC(=S)N1CCCC1
0.13 µM (≈ 0.0315 µg/mL) | CC1(C)CCC2=C(O1)c1ccccc1C(=O)C2=O [LAPACHONE]
4.98 µM (≈ 1.56 µg/mL) | CN(C)c1ncnc(SC(=S)N2CCCC2)c1[N+](=O)[O-]
45.6 µM (≈ 12.5 µg/mL) | CC(C)(O)[C@@H]1OC2=C(C(=O)c3ccccc3C2=O)[C@H]1O
2.48 µM (≈ 0.8 µg/mL) | N#Cc1cc([N+](=O)[O-])cnc1SC(=S)N1CCCCCC1

test system: Mycolicibacterium fortuitum; assay: Antibacterial activity against Mycobacterium fortuitum; assay type: functional

Compound | MIC
OCCCCCCCCN=C=S | 20 µM (≈ 3.74 µg/mL)
O=C1C(=S)N(c2ccccc2)c2ccccc21 | 63 µM (≈ 15.1 µg/mL)
CCOC(=O)/C=C/C(=O)c1ccc(C(C)(C)C)cc1 | 15.4 µM (≈ 4 µg/mL)
CCOC(=O)/C=C/C(=O)c1cc2ccccc2s1 | 61.5 µM (≈ 16 µg/mL)
CCOC(=O)/C=C\C(=O)c1ccc(C(C)(C)C)cc1 | 30.7 µM (≈ 8 µg/mL)
CC(=O)O[C@@H]1[C@@H](OC(C)=O)[C@@H](O)[C@H](OC[C@]2(C)[C@@H](O)C[C@H](O)[C@]3(C)[C@H]4CC=C5[C@@H]6C[C@](C)(C(=O)O[C@@H]7O[C@@H](C)[C@H](O)[C@@H](O)[C@H]7O)CC[C@]6(C)CC[C@@]5(C)[C@]4(C)CC[C@@H]23)O[C@H]1C | 27.9 µM (≈ 24.2 µg/mL)
COc1ccc(/C=C/C2=NN(C(=N)N)C(c3ccc(OC)cc3)C2)cc1 (centres undefined) | 0.44 µM (≈ 0.154 µg/mL)
N=C(N)N1N=C(/C=C/c2ccccc2)CC1c1ccccc1 (centres undefined) | 0.54 µM (≈ 0.157 µg/mL)
Cc1ccccc1/C=C/C1=NN(C(=N)N)C(c2ccccc2C)C1 (centres undefined) | 0.49 µM (≈ 0.156 µg/mL)
COc1cc(Cc2cc(-c3ccc(Cl)cc3)n(-c3ccc(Cl)cc3)c2C)ccc1N1CCNCC1 | 15.8 µM (≈ 8.02 µg/mL)
Nc1ccc(-c2nc3cc(-c4ccc5[nH]c(-c6ccc(N)cc6)nc5c4)ccc3[nH]2)cc1 | 19.2 µM (≈ 8 µg/mL)
C[C@@H](OC(=O)c1cc([N+](=O)[O-])cc([N+](=O)[O-])c1)c1ccccc1 | 4.94 µM (≈ 1.56 µg/mL)
C[C@H](OC(=O)c1cc([N+](=O)[O-])cc([N+](=O)[O-])c1)c1ccccc1 | > 10.3 µM

More lines, now with the values ahead:

MIC | Compound
3.2 µM (≈ 1.51 µg/mL) | CC1(C)[C@@H](O)C[C@H](O)[C@]2(C)[C@H]3CC=C4[C@@H]5C[C@](C)(C(=O)O)CC[C@]5(C)CC[C@@]4(C)[C@]3(C)CC[C@@H]12
39.7 µM (≈ 12.5 µg/mL) | C[C@H](NC(=O)c1cc([N+](=O)[O-])cc([N+](=O)[O-])c1)c1ccccc1
29.3 µM (≈ 19.8 µg/mL) | CC(=O)O[C@@H]1[C@@H](O)[C@@H](O)[C@H](OC[C@]2(C)[C@@H](O)C[C@H](O)[C@]3(C)[C@H]4CC=C5[C@@H]6C[C@](C)(C(=O)O)CC[C@]6(C)CC[C@@]5(C)[C@]4(C)CC[C@@H]23)O[C@H]1C
16.8 µM (≈ 8.02 µg/mL) | Cc1c(Cc2ccc(N3CCNCC3)cn2)cc(-c2ccc(Cl)cc2)n1-c1ccc(Cl)cc1
56.7 µM (≈ 16 µg/mL) | COc1cc(O)cc(/C=C/c2cc3ccccc3s2)c1
7.35 µM (≈ 4 µg/mL) | Cc1c(Cc2ccc(N3CCNCC3)cc2C(F)(F)F)cc(-c2ccc(Cl)cc2)n1-c1ccc(Cl)cc1
0.89 µM (≈ 0.312 µg/mL) | COc1ccccc1/C=C/C1=NN(C(=N)N)C(c2ccccc2OC)C1 (centres undefined)
63 µM (≈ 11.2 µg/mL) | CN1C(=S)C(=O)c2ccccc21
32 µM (≈ 7.02 µg/mL) | CCCCN1C(=S)C(=O)c2ccccc21
0.43 µM (≈ 0.154 µg/mL) | N=C(N)N1N=C(/C=C/c2ccc(Cl)cc2)CC1c1ccc(Cl)cc1 (centres undefined)
1.27 µM (≈ 0.4 µg/mL) | C[C@@H](NC(=O)c1cc([N+](=O)[O-])cc([N+](=O)[O-])c1)c1ccccc1
17.1 µM (≈ 12.3 µg/mL) | CC(=O)O[C@@H]1[C@@H](OC(C)=O)[C@@H](O)[C@H](OC[C@]2(C)[C@@H](O)C[C@H](O)[C@]3(C)[C@H]4CC=C5[C@@H]6C[C@](C)(C(=O)O)CC[C@]6(C)CC[C@@]5(C)[C@]4(C)CC[C@@H]23)O[C@H]1C
5.31 µM (≈ 2.5 µg/mL) | COc1cc(/C=C/C2=NN(C(=N)N)C(c3cc(OC)c(OC)c(OC)c3)C2)cc(OC)c1OC (centres undefined)

test system: Mycolicibacterium fortuitum; assay: Antimycobacterial activity against Mycobacterium fortuitum ATCC 35931 assessed as reduction in bacterial growth; assay type: functional

Compound | MIC
Fc1ccc(C(c2ccc(OCCN3CCCC3)cc2)c2cccs2)cc1 (centres undefined) | 8.2 µM (≈ 3.13 µg/mL)
C[n+]1ccc(-c2c3nc(c(-c4cc[n+](C)cc4)c4ccc([nH]4)c(-c4cc[n+](C)cc4)c4ccc([nH]4)c(-c4cc[n+](C)cc4)c4nc2C=C4)C=C3)cc1 [TMPYP4] | 50 µM
COc1cc(OC)c2c(ccc3cc(O)c(O)cc32)c1 | 92.5 µM (≈ 25 µg/mL)
CCN(CC)CCCCOc1cc2oc3cc(OCCCCN(CC)CC)c(OC)c(CC=C(C)C)c3c(=O)c2c(OCCCCN(CC)CC)c1CC=C(C)C | 15.8 µM (≈ 12.5 µg/mL)
CC(C)N(CCOc1ccc(C(c2ccc(F)cc2)c2cccs2)cc1)C(C)C (centres undefined) | 15.2 µM (≈ 6.26 µg/mL)
CC(=O)OCC1=CCc2c(cc(O)c3c(=O)cc(C)oc23)OC1 | 25.3 µM (≈ 8 µg/mL)
Clc1ccc(C(c2ccc(OCCN3CCCCC3)cc2)c2cccs2)cc1 (centres undefined) | 3.79 µM (≈ 1.56 µg/mL)
Fc1ccc(C(c2ccc(OCCN3CCCCCC3)cc2)c2cccs2)cc1 (centres undefined) | 3.81 µM (≈ 1.56 µg/mL)
CC(=O)c1c(O)c(C)c(O)c2c1OC1=CC(=O)C(C(C)=O)C(=O)C12C (centres undefined) | 0.15 µM (≈ 0.0516 µg/mL)
O=S(=O)(O)c1ccc(-c2c3nc(c(-c4ccc(S(=O)(=O)O)cc4)c4ccc([nH]4)c(-c4ccc(S(=O)(=O)O)cc4)c4nc(c(-c5ccc(S(=O)(=O)O)cc5)c5ccc2[nH]5)C=C4)C=C3)cc1 | 100 µM (≈ 93.5 µg/mL)

Continued, values first:

MIC | Compound
29.3 µM (≈ 12.5 µg/mL) | CC(C)N(CCOc1ccc(C(c2ccc(Cl)cc2)c2cccs2)cc1)C(C)C (centres undefined)
0.12 µM (≈ 0.0497 µg/mL) | CC(=O)c1ccc2c3c4c(c(O)cc(C)c4c(O)c2c1O)C(=O)c1c(O)cc(C)cc1-3
7.67 µM (≈ 3.13 µg/mL) | COc1ccc(C(c2ccc(OCCN3CCCCC3)cc2)c2cccs2)cc1 (centres undefined)
7.67 µM (≈ 3.13 µg/mL) | COc1cccc(C(c2ccc(OCCN3CCCCC3)cc2)c2cccs2)c1 (centres undefined)
7.9 µM (≈ 3.12 µg/mL) | Fc1ccc(C(c2ccc(OCCN3CCCCC3)cc2)c2cccs2)cc1 (centres undefined)
16.3 µM (≈ 6.25 µg/mL) | CCN(CC)CCOc1ccc(C(c2ccc(F)cc2)c2cccs2)cc1 (centres undefined)
